One data set deals with T1, ABL2 (Homo sapiens, UniProt P42684).
T1 construct: purchased Ambit (DiscoverX) KINOMEscan; Cerep
The data set can be described thus: KINOMEscan. It is filed as binding. Conditions: read-out: Remaining enzyme activity. As for the experimental part: (§1) The KINOMEscan was carried out by Ambit (San Diego, USA) according to a previously established protocol. The experiment was based on a competition binding assay that quantitatively measures the ability of a compound to compete with an immobilized, active-site directed ligand. The assay is performed by combining three components: DNA-tagged kinase; immobilized ligand; and a test compound. The ability of the test compound to compete with the immobilized ligand is measured via quantitative PCR of the DNA tag.
(§2) For most assays, kinase-tagged T7 phage strains were grown in parallel in 24-well blocks in an Escherichia coli host derived from the BL21 strain. E. coli were grown to log-phase and infected with T7 phage from a frozen stock and incubated with shaking at 32 °C until lysis (90–150 min). The lysates were centrifuged (6,000g) and filtered (0.2 μm) to remove cell debris. The remaining kinases were produced in HEK-293 cells (Sigma Aldrich, catalogue number: 85120602) and subsequently tagged with DNA for quantitative PCR detection. […] The liganded beads were blocked with excess biotin and washed with blocking buffer (SeaBlock (Pierce), 1% bovine serum albumin, 0.05% Tween 20 and 1 mM dithiothreitol) to remove unbound ligand and to reduce non-specific phage binding. […] SC81458 was prepared as 40x stock in 100% DMSO and directly diluted into the assay to a final concentration of 10 μM. All reactions were performed in polypropylene 384-well plates in a final volume of 0.04 ml. […] The kinase concentration in the eluates was measured by quantitative PCR.

Another data set has as its target T2, CAMKK2 (Homo sapiens, UniProt Q96RR4).
T2 construct: purchased Ambit (DiscoverX) KINOMEscan; Cerep
The data set can be described thus: KINOMEscan. It is filed as binding. The note with it: read-out: Remaining enzyme activity. As for the experimental part: as §1, §2

The target of the next data set is T3, ERK1 (Homo sapiens, UniProt P27361).
T3 construct: purchased Ambit (DiscoverX) KINOMEscan; Cerep
The data set can be described thus: KINOMEscan. In kind it is binding. The note with it: read-out: Remaining enzyme activity. As for the experimental part: as §1, §2

For a further data set, the target named is T4, FLT3(N841I) (Homo sapiens, UniProt P36888, N841I).
T4 construct: purchased Ambit (DiscoverX) KINOMEscan; Cerep
Nature of the data set: KINOMEscan. It is filed as binding. Conditions: read-out: Remaining enzyme activity. As for the experimental part: as §1, §2

The target in another data set is T5, GRK4 (Homo sapiens, UniProt P32298).
T5 construct: purchased Ambit (DiscoverX) KINOMEscan; Cerep
The data set can be described thus: KINOMEscan. In kind it is binding. Conditions: read-out: Remaining enzyme activity. As for the experimental part:
as §1, §2

Another data set has as its target T6, MAP4K5 (Homo sapiens, UniProt Q9Y4K4).
T6 construct: purchased Ambit (DiscoverX) KINOMEscan; Cerep
The data set can be described thus: KINOMEscan. In kind it is binding. The note with it: read-out: Remaining enzyme activity. As for the experimental part:
as §1, §2

The target of the next data set is T7, MAPKAPK2 (Homo sapiens, UniProt P49137).
T7 construct: purchased Ambit (DiscoverX) KINOMEscan; Cerep
Nature of the data set: KINOMEscan. It is filed as binding. Conditions: read-out: Remaining enzyme activity. As for the experimental part:
as §1, §2

The target of the next data set is T8, PIM1 (Homo sapiens, UniProt P11309).
T8 construct: purchased Ambit (DiscoverX) KINOMEscan; Cerep
The data set can be described thus: KINOMEscan. In kind it is binding. Conditions: read-out: Remaining enzyme activity. As for the experimental part:
as §1, §2

Another data set addresses T9, RRET(V804L) (Homo sapiens, UniProt P07949, V804L).
T9 construct: purchased Ambit (DiscoverX) KINOMEscan; Cerep
Nature of the data set: KINOMEscan. In kind it is binding. Conditions: read-out: Remaining enzyme activity. As for the experimental part:
as §1, §2

The next data set has as its target T10, TXK (Homo sapiens, UniProt P42681).
T10 construct: purchased Ambit (DiscoverX) KINOMEscan; Cerep
Nature of the data set: KINOMEscan. It is filed as binding. The note with it: read-out: Remaining enzyme activity. As for the experimental part: as §1, §2

Data set [1] is described as follows: In vitro metabolism in liver microsomes. Conditions: dog liver microsomes, 10 μM.
The next data set in a line: Measured pK. It is filed as physicochemical. As for the experimental part: SC81458 and SC83288 were soluble in water (890 and 940 μg ml^−1, respectively) and organic solvents. […] The compounds were stable in different physiological solutions, including artificial gastric juice, simulated intestinal fluid, phosphate-buffered saline and human plasma, when incubated for 6 h at 37 °C.

The nature of data set [2]: Tolerability of i.v. bolus dose. The note with it: mice. It is filed as in vivo, mouse. As for the experimental part: The maximal-tolerated i.v. bolus dose of SC83288 was at 30 mg kg^−1 body weight (extrapolated initial drug plasma concentration C0 of 65,600 ng ml^−1) and 15 mg kg^−1 body weight (C0 of 27,300 ng ml^−1) in rats and mice, respectively. Observed adverse effects included ataxia, respiratory symptoms and sleepiness. However, all treated animals fully recovered within 30 min after drug application. […] Increasing the dose to 45 mg kg^−1 body weight caused apnoea in rats. The no-observed-adverse-effect level and the no-observed-effect level in rats corresponded to a tested i.v. bolus dose of 22.5 mg kg^−1 body weight (C0 of 49,200 ng ml^−1) and 15 mg kg^−1 body weight (C0 of 32,800 ng ml^−1), respectively.
On the treatment day, all animals were weighed and the dosing volume was calculated for each individual animal according to its actual body weight. All animal were dosed once. Blood samples were taken at different time points and plasma was collected after centrifugation (10,000g, 10 min, 4 °C). Plasma samples were analysed by LC–MS/MS. […] All relevant observations were recorded. The PK studies in cynomolgus monkeys and beagle dogs were performed by the Laboratory of Pharmacology and Toxicology (LPT), Hamburg, and PK and toxicity studies in mice and rats were performed by the 4SC Discovery GmbH, Munich. […]

Data set [3] in a line: PK study. It is filed as in vivo, rat. The note with it: rat i.v. 2 mg kg^−1; for half-life: rat, 2 mg/kg. As for the experimental part:
(§3) On the treatment day, all animals were weighed and the dosing volume was calculated for each individual animal according to its actual body weight. All animal were dosed once. Blood samples were taken at different time points and plasma was collected after centrifugation (10,000g, 10 min, 4 °C). Plasma samples were analysed by LC–MS/MS. […] All relevant observations were recorded. The PK studies in cynomolgus monkeys and beagle dogs were performed by the Laboratory of Pharmacology and Toxicology (LPT), Hamburg, and PK and toxicity studies in mice and rats were performed by the 4SC Discovery GmbH, Munich. PK parameters were obtained by a non-compartment analysis, using Kinetica 4.1 (Thermo Scientific).

Data set [4] can be described thus: PK study. The note with it: dog i.v. 1.7 mg kg^−1; for half-life: dog. It is filed as in vivo. As for the experimental part:
as §3

A short description of data set [5]: Plasma protein binding, rapid equilibrium dialysis. It is filed as in vitro ADME. Conditions: 10 μM. As for the experimental part: The study was carried out by Novamass Ltd (Oulu, Finland). The plasma protein binding of SC83288 was determined in human rat, mouse and cynomolgus plasma, using a method based on rapid equilibrium dialysis and LC/MS/MS analysis. Briefly, plasma from the different species was incubated with a final concentration of SC83288 of 10 μM for 4 h at 37 °C in a rapid equilibrium dialysis device. Proteins were then precipitated by acetonitrile addition containing a phenacetin internal standard. After centrifugation (10,000g) the supernatants were analysed by LC/MS/MS to obtain the protein unbound fraction of the analyte substance.
In general terms: In equilibrium dialysis free small molecules cross a membrane that holds back macromolecules.

“And” between values parts separate entries of the source, which are not always exact repeats. Equal values may be shown once. Read-outs that look alike come from different tables or passages of the source.

T7 sequence (P49137 whole entry): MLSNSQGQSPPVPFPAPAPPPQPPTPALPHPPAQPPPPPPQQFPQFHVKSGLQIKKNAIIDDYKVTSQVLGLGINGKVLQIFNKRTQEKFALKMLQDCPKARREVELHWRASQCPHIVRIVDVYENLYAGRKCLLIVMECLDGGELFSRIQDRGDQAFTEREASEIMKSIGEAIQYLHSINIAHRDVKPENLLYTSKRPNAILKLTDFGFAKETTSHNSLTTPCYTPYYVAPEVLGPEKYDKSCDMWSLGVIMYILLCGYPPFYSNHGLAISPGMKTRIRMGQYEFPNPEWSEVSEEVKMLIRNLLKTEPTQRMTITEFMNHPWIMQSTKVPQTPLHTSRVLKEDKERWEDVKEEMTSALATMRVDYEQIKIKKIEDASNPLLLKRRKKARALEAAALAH
T8 sequence (P11309 whole entry): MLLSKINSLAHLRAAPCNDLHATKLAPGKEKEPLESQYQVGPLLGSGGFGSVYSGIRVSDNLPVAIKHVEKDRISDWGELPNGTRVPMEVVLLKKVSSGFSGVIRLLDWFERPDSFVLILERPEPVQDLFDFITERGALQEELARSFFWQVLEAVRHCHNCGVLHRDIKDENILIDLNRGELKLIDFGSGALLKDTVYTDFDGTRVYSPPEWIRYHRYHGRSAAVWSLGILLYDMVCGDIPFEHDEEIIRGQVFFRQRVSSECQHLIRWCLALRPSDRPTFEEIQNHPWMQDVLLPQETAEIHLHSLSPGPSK
T5 sequence (P32298 whole entry): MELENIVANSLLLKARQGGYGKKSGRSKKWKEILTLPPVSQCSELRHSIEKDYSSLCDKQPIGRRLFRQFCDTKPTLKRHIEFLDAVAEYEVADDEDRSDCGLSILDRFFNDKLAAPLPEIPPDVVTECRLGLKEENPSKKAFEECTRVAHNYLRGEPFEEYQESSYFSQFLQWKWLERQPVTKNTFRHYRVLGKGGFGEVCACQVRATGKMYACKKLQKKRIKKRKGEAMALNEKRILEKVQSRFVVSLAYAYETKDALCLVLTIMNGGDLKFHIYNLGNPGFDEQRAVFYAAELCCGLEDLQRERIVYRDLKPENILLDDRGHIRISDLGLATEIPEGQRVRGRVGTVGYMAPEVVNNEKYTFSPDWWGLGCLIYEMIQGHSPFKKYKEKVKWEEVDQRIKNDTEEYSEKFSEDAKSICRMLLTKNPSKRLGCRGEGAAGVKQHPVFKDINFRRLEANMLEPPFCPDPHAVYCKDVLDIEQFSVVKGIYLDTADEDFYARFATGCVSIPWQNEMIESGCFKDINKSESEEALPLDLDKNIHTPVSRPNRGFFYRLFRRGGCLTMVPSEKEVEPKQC
T2 sequence (Q96RR4 whole entry): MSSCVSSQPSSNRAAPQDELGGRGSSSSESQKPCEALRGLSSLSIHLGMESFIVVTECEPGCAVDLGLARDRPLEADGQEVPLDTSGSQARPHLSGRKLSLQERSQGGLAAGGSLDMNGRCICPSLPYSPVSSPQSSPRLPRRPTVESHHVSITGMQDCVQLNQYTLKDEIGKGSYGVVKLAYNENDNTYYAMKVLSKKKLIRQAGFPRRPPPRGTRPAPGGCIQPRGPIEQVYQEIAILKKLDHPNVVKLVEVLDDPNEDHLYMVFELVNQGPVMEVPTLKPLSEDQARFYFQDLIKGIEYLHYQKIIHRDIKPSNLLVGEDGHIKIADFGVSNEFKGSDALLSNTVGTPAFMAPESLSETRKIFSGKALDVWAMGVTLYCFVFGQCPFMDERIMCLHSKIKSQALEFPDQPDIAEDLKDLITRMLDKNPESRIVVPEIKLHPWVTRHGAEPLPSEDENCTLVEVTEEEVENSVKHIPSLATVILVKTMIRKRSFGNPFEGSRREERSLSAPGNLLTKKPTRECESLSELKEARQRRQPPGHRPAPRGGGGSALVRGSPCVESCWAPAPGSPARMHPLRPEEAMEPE
T3 sequence (P27361 whole entry): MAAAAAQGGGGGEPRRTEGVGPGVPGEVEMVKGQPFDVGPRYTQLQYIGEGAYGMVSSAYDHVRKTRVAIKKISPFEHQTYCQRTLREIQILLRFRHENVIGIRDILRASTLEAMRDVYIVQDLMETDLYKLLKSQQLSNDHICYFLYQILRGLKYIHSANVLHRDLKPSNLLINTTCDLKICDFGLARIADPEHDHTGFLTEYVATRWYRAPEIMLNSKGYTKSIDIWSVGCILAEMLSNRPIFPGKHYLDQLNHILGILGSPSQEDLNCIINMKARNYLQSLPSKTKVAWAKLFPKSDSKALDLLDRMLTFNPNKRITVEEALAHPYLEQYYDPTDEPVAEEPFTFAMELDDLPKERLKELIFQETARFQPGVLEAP
T1 sequence (P42684 whole entry): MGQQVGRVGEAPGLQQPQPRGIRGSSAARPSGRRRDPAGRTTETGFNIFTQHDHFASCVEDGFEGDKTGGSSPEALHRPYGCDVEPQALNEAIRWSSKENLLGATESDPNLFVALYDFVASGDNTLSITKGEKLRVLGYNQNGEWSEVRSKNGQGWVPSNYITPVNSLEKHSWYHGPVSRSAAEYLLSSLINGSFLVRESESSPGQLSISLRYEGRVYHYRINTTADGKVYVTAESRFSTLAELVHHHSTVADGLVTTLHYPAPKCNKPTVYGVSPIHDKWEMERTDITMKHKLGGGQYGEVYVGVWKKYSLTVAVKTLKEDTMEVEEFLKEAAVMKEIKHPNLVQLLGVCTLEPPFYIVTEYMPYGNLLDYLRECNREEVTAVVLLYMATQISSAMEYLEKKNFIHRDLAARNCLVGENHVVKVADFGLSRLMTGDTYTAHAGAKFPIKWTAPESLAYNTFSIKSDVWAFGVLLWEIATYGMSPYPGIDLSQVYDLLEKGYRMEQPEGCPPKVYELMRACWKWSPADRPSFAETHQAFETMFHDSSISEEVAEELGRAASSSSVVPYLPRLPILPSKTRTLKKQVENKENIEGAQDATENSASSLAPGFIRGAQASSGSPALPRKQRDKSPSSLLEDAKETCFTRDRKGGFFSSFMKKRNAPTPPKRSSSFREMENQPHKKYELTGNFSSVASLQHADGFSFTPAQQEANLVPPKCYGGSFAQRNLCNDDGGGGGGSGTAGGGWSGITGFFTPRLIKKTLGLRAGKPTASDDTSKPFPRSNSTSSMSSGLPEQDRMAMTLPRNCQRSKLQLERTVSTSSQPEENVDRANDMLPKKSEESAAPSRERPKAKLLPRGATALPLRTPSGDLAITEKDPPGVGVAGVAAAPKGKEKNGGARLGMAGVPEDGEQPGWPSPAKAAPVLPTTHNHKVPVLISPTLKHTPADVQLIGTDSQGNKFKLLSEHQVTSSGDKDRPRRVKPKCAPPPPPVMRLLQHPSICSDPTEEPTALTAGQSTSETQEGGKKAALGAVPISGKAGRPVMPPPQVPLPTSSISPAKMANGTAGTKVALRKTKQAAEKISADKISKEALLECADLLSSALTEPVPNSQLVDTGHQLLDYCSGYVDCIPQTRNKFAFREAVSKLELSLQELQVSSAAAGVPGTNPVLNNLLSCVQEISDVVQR
T10 sequence (P42681 whole entry): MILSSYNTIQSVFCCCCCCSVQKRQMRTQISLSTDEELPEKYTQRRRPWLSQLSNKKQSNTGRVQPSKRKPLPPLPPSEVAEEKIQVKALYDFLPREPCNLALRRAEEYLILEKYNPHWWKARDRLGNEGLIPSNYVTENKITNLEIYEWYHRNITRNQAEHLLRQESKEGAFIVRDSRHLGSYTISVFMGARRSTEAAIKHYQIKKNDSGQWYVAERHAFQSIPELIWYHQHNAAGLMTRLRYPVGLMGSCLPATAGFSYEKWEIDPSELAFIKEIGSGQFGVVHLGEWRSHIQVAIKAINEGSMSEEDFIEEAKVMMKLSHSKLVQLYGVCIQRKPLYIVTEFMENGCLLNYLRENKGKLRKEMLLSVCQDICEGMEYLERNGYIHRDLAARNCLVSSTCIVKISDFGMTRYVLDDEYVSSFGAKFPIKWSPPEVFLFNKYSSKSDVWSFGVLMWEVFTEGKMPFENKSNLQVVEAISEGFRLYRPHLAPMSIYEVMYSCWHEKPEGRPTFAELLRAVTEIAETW
T6 sequence (Q9Y4K4 whole entry): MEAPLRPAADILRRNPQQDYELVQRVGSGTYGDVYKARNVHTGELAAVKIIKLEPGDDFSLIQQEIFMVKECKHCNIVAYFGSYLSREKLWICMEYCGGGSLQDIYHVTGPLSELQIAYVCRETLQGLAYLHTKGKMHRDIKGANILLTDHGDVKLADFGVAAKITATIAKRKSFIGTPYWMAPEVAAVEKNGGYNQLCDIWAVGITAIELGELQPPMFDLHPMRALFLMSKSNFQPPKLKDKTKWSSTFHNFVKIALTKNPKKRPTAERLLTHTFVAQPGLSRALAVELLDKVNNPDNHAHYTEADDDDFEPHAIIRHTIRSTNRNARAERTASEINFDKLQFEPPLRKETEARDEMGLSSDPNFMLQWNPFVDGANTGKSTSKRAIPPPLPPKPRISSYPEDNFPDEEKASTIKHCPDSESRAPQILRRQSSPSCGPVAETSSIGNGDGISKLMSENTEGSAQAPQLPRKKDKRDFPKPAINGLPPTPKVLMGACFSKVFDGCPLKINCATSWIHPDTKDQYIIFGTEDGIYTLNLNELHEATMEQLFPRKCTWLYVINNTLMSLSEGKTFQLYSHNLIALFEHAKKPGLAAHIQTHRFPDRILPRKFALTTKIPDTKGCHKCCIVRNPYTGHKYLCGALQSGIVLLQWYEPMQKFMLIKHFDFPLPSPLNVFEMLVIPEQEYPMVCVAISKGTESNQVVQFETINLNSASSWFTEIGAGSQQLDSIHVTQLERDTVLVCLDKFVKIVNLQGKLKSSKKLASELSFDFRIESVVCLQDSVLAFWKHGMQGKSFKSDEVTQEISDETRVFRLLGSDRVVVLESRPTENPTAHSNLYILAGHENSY

`CCCCN1CCN(C(=N)c2cccc(NC(=O)Nc3ccc(S(=O)(=O)NCc4ccc(S(N)(=O)=O)cc4)cc3)c2)CC1` [SC81458, 4-(3-(3-((4-butylpiperazin-1-yl)(imino)methyl)phenyl)ureido)-N-(4-sulfamoylbenzyl) benzenesulfonamide]: the remaining binding at 10 µM at ABL2 stood at 77%; on CAMKK2, 100%; at ERK1 it was 99%; on FLT3(N841I), 100%; at GRK4, 92%; on MAP4K5 it was 100%. Further, the remaining binding at 10 µM at MAPKAPK2 turned out to be 71%; at PIM1, 100%; on RRET(V804L), 100%; on TXK, 87%. Also, the “remaining after 60 min of incubation” value in data set [1] is 37%.

Usually AUC(0-inf) stands for total exposure, with the tail of the curve extrapolated. A high value points to more exposure. As a reminder, the Cmax is the peak of the concentration-time curve. What is called Tmax is the time at which the peak concentration occurs. What is called clearance is the rate of elimination divided by the concentration. Read a low clearance as a low capacity for elimination. Compound `COC(=O)N1CCN(C(=N)c2cccc(NC(=O)Nc3ccc(S(=O)(=O)NCc4ccc(S(N)(=O)=O)cc4)cc3)c2)CC1` [SC83288, methyl 4-(imino(3-(3-(4-(N-(4-sulfamoylbenzyl)sulfamoyl)phenyl)ureido)phenyl)methyl) piperazine-1-carboxylate] had a pK in “Measured pK” of 9.82. For the same compound, in [2], the “maximal-tolerated i.v. bolus dose” value turned out to be 15 mg kg^−1 body weight. Further, the C0 was 27300 ng/mL in data set [2] (mouse, plasma, iv, 15 mg kg^−1 i.v. bolus, read-out: extrapolated C0); 4380 ng/mL in the data set “PK study [3]” (plasma, iv); 5580 ng/mL in the data set “PK study [4]” (beagle, plasma, iv). The total exposure AUC(0-inf) in “PK study [3]” (plasma, iv) amounted to 1420 ng·h/mL; in the data set “PK study [4]” (beagle, plasma, iv) it was 2260 ng·h/mL. In addition, the highest concentration (Cmax) stood at 3280 ng/mL in the data set “PK study [3]” (plasma, iv) and 4560 ng/mL in “PK study [4]” (beagle, plasma, iv). Moreover, the time of peak concentration (Tmax) is 5 min in the data set “PK study [3]” (plasma, iv) and 5 min in “PK study [4]” (beagle, plasma, iv). Besides, the clearance in “PK study [3]” (plasma, iv) is 23.5 mL/min/kg; in “PK study [4]” (beagle, plasma, iv), 14.7 mL/min/kg. The MRT last in the data set “PK study [3]” (plasma, iv, read-out: MRT0-t) came out at 75 min; in the data set “PK study [4]” (beagle, plasma, iv, read-out: MRT0-t) it was 50.4 min. Also, the VC turned out to be 0.457 L/kg in “PK study [3]” and 0.359 L/kg in “PK study [4]”. Moreover, the half-life in the data set “PK study [3]” (plasma, iv, read-out: t1/2 effective) worked out at 52 min; in the data set “PK study [3]” (plasma, iv, read-out: t1/2 initial), 9 min; in the data set “PK study [3]” (plasma, iv, read-out: t1/2 terminal), 625 min; in the data set “PK study [4]” (beagle, plasma, iv, read-out: t1/2 effective) it was 35 min; in the data set “PK study [4]” (beagle, plasma, iv, read-out: t1/2 initial) it was 12 min; in the data set “PK study [4]” (beagle, plasma, iv, read-out: t1/2 terminal), 90 min. Besides, the Bound fraction in data set [5] (cynomolgus plasma) is 82 ± 2.8% and 82%; in data set [5] (human plasma) it was 78 ± 1.3% and 78%; in data set [5] (mouse plasma), 89 ± 2.2% and 89%; in [5] (rat plasma), 80 ± 0.6%. Further, in data set [1], the “remaining after 60 min of incubation” value was 83%.

(Values after article PMC5290327, “SC83288 is a clinical development candidate for the treatment of severe malaria” (Nature Communications, 2017).)
